Patent US8642774B2, “Compounds” (Boehringer Ingelheim International GmbH, priority 2011, dated 2014)

The molecules below were run against T1, human recombinant mGluR5 (Homo sapiens, UniProt P41594) (assay: positive modulation of mGluR5, calcium based FLIPR assay). Conditions: EC50 of the modulation; HEK 293 cell line expressing human recombinant mGluR5; peak height of Ca fluorescence signal after glutamate at approx. 5% basal stimulation; read-out: EC50.
T1 construct: expressed in transfected cells; host or cells: HEK 293 cell line, cultured with tetracycline, hygromycin and geneticin; tetracycline is withdrawn 3-7 days before the assay
T1 sequence (P41594 21-1212): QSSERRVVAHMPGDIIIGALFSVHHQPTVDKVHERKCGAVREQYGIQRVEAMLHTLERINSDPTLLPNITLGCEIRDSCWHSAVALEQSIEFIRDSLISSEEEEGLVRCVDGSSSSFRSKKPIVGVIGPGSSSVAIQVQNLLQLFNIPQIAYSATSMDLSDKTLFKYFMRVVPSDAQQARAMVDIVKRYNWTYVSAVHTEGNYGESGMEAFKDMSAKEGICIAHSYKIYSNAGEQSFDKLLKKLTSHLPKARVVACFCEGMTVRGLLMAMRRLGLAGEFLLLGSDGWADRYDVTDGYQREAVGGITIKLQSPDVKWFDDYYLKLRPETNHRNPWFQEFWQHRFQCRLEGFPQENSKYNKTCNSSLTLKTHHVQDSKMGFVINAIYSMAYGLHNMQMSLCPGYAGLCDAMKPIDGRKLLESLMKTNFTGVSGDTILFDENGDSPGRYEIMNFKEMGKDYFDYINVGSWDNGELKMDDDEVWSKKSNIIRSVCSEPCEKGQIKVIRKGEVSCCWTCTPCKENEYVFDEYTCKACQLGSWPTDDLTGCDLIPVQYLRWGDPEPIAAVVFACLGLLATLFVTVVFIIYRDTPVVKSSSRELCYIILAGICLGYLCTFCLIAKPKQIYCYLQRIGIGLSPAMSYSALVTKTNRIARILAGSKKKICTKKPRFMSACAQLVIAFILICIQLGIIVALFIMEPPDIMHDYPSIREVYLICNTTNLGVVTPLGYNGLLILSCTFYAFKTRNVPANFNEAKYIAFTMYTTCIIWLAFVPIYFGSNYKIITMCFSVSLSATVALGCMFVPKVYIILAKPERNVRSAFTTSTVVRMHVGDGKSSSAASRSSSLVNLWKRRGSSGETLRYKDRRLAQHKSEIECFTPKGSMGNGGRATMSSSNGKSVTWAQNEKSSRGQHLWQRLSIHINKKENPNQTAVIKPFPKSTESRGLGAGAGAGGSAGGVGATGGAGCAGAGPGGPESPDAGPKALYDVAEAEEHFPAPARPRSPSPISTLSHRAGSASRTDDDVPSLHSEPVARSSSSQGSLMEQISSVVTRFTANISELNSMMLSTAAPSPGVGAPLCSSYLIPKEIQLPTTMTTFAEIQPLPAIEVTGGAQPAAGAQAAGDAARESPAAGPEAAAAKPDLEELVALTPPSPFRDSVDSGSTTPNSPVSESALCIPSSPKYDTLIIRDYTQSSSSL
Format: cell-based
Procedure, shortened: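 HEK 293 cells expressing human recombinant mGluR5, tetracycline-free before assay, loaded with Calcium-4 dye in Ringer solution pH 7.4. Compounds (1% DMSO final) added for 5 min, then glutamate at about 5% of maximal effect; FLIPR peak Ca signal scaled between 1% DMSO (100%) and 10 μM CDPPB (200%) controls, EC50 by nonlinear regression.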
`Cc1cc(-c2nc(C(C)C)n(CC(=O)N3CC=C(c4ccccn4)CC3)n2)ccc1F` [Example 7.03.075.] gave an EC50 of 1090 nM. With `Cc1cc(-c2nc(C(C)C)n(CC(=O)N3CC=C(c4ncccn4)CC3)n2)ccc1F` [Example 7.03.076.] the EC50 was 1710 nM. `COc1cc(C2=CCN(C(=O)Cn3nc(-c4ccc(F)c(C)c4)nc3C(C)C)CC2)ncn1` [Example 7.03.077.] gave an EC50 of 500 nM. In the case of `Cc1ccnc(C2=CCN(C(=O)Cn3nc(-c4ccc(F)c(C)c4)nc3C(C)C)CC2)c1` [Example 7.03.078.], the EC50 is reported as 803 nM. With `COc1ccnc(C2=CCN(C(=O)Cn3nc(-c4ccc(F)c(C)c4)nc3C(C)C)CC2)c1` [Example 7.03.079.] the EC50 was 545 nM. In the case of `COc1cnc(C2=CCN(C(=O)Cn3nc(-c4ccc(F)c(C)c4)nc3C(C)C)CC2)nc1` [Example 7.03.080.], the EC50 is reported as 1140 nM. Work on `CCc1nc(-c2ccc(F)c(C)c2)nn1CC(=O)N1CCc2nc(C)sc2CC1` [Example 7.03.081.] yielded an EC50 of 413 nM. Molecule `CCc1nc(-c2ccc(F)c(C)c2)nn1CC(=O)N1CCc2nc(N)sc2CC1` [Example 7.03.082.] has an EC50 of 1890 nM. Work on `Cc1cc(-c2nc(-c3ccc(F)c(C)c3)n(CC(=O)N3CCc4nc(N)sc4CC3)n2)ccc1F` [Example 7.03.083.] yielded an EC50 of 64 nM. `Cc1nc2c(s1)CCN(C(=O)Cn1nc(-c3ccc(F)c(C)c3)nc1-c1ccc(F)c(C)c1)CC2` [Example 7.03.084.] gave an EC50 of 52 nM. Molecule `CCC(C)c1nc(-c2ccc(F)c(C)c2)nn1CC(=O)N1CCc2nc(N)sc2CC1` (stereo not shown) [Example 7.03.085.] has an EC50 of 644 nM. With `CCC(C)c1nc(-c2ccc(F)c(C)c2)nn1CC(=O)N1CCc2nc(C)sc2CC1` (stereo not shown) [Example 7.03.086.] the EC50 was 379 nM. For `Cc1nc2c(s1)CCN(C(=O)Cn1nc(-c3ccc(F)c(C)c3)nc1C)CC2` [Example 7.03.087.], the EC50 was 647 nM. Work on `COc1cc(-c2nc(-c3ccc(F)cc3)n(CC(=O)N3CCc4nc(N)sc4CC3)n2)ccc1F` [Example 7.03.088.] yielded an EC50 of 60 nM. Work on `COc1cc(-c2nc(-c3ccc(F)cc3)n(CC(=O)N3CCc4nc(C)sc4CC3)n2)ccc1F` [Example 7.03.089.] yielded an EC50 of 71 nM. `Cc1nc2c(s1)CCN(C(=O)Cn1nc(-c3ccc(F)c(C)c3)nc1C1CCC(C)CC1)CC2` (stereo not shown) [Example 7.03.090.] gave an EC50 of 420 nM. With `Cc1nc2c(s1)CN(C(=O)Cn1nc(-c3ccc(F)c(C)c3)nc1C1CCC(C)CC1)C2` (stereo not shown) [Example 7.03.091.] the EC50 was 1680 nM. For `Cc1cc(-c2nc(C3CCC(C)CC3)n(CC(=O)N3CCc4nc(N)sc4CC3)n2)ccc1F` (stereo not shown) [Example 7.03.092.], the EC50 was 1160 nM. `Cc1nc2c(s1)CCN(C(=O)Cn1nc(-c3ccc(F)c(C)c3)nc1C1CCCCC1C)CC2` (stereo not shown) [Example 7.03.093.] showed an EC50 of 433 nM. Molecule `Cc1cc(-c2nc(C3CCCCC3C)n(CC(=O)N3CCc4nc(N)sc4CC3)n2)ccc1F` (stereo not shown) [Example 7.03.094.] has an EC50 of 1090 nM. For `Cc1cc(-c2nc(C3CCCC(C)C3)n(CC(=O)N3CCc4nc(N)sc4CC3)n2)ccc1F` (stereo not shown) [Example 7.03.095.], the EC50 was 610 nM. With `Cc1nc2c(s1)CCN(C(=O)Cn1nc(-c3ccc(F)c(C)c3)nc1C1CCCC(C)C1)CC2` (stereo not shown) [Example 7.03.096.] the EC50 was 355 nM. Work on `Cc1nc2c(s1)CCN(C(=O)Cn1nc(-c3ccc(F)c(C)c3)nc1C1CCC(F)(F)CC1)CC2` [Example 7.03.097.] yielded an EC50 of 502 nM. In the case of `Cc1nc2c(s1)CCN(C(=O)Cn1nc(-c3ccc(F)c(C)c3)nc1CC(C)C)CC2` [Example 7.03.098.], the EC50 is reported as 226 nM. `Cc1cc(-c2nc(CC(C)C)n(CC(=O)N3CCc4nc(N)sc4CC3)n2)ccc1F` [Example 7.03.099.] showed an EC50 of 269 nM. In the case of `CCCCc1nc(-c2ccc(F)c(C)c2)nn1CC(=O)N1CCN(c2cccc(OC)c2)C(=O)C1` [Example 7.03.100.], the EC50 is reported as 302 nM. Work on `CCCCc1nc(-c2ccc(F)c(C)c2)nn1CC(=O)N1Cc2nc(C)sc2C1` [Example 7.03.101.] yielded an EC50 of 382 nM. For `CCCCc1nc(-c2ccc(F)c(C)c2)nn1CC(=O)N1CCc2nc(N)sc2CC1` [Example 7.03.102.], the EC50 was 293 nM. `CCCCc1nc(-c2ccc(F)c(C)c2)nn1CC(=O)N1CCc2nc(C)sc2CC1` [Example 7.03.103.] showed an EC50 of 113 nM. In the case of `COc1cccc(N2CCN(C(=O)Cn3nc(-c4ccc(F)c(C)c4)nc3C3CCCC3)CC2=O)c1` [Example 7.03.104.], the EC50 is reported as 679 nM. For `Cc1nc2c(s1)CN(C(=O)Cn1nc(-c3ccc(F)c(C)c3)nc1C1CCCC1)C2` [Example 7.03.105.], the EC50 was 870 nM. `Cc1cc(-c2nc(C3CCCC3)n(CC(=O)N3CCc4nc(N)sc4CC3)n2)ccc1F` [Example 7.03.106.] was tested, and the EC50 was 251 nM. `Cc1nc2c(s1)CCN(C(=O)Cn1nc(-c3ccc(F)c(C)c3)nc1C1CCCC1)CC2` [Example 7.03.107.] was tested, and the EC50 was 63 nM. `CCCCCc1nc(-c2ccc(F)c(C)c2)nn1CC(=O)N1Cc2nc(C)sc2C1` [Example 7.03.108.] gave an EC50 of 201 nM. Molecule `CCCCCc1nc(-c2ccc(F)c(C)c2)nn1CC(=O)N1CCN(c2cccc(OC)c2)C(=O)C1` [Example 7.03.109.] has an EC50 of 422 nM. In the case of `CCCCCc1nc(-c2ccc(F)c(C)c2)nn1CC(=O)N1CCc2nc(C)sc2CC1` [Example 7.03.110.], the EC50 is reported as 55 nM. `CCCCCc1nc(-c2ccc(F)c(C)c2)nn1CC(=O)N1CCc2nc(N)sc2CC1` [Example 7.03.111.] was tested, and the EC50 was 90 nM. Molecule `Cc1cc(-c2nc(CCC(C)C)n(CC(=O)N3CCc4nc(N)sc4CC3)n2)ccc1F` [Example 7.03.112.] has an EC50 of 147 nM. `Cc1nc2c(s1)CN(C(=O)Cn1nc(-c3ccc(F)c(C)c3)nc1CCC(C)C)C2` [Example 7.03.113.] gave an EC50 of 340 nM. `Cc1nc2c(s1)CCN(C(=O)Cn1nc(-c3ccc(F)c(C)c3)nc1CCC(C)C)CC2` [Example 7.03.114.] gave an EC50 of 102 nM. `Nc1nc2c(s1)CCN(C(=O)Cn1nc(-c3ccc(F)cn3)nc1-c1ccc(F)cc1)CC2` [Example 7.03.115.] was tested, and the EC50 was 231 nM. Work on `Cc1nc2c(s1)CCN(C(=O)Cn1nc(-c3ccc(F)cn3)nc1-c1ccc(F)cc1)CC2` [Example 7.03.116.] yielded an EC50 of 392 nM. `Cc1nc2c(s1)CCN(C(=O)Cn1nc(-c3ccc(F)cc3)nc1-c1ccc(F)cn1)CC2` [Example 7.03.117.] was tested, and the EC50 was 889 nM. In the case of `CC1CN(C(=O)Cn2nc(-c3ccc(F)cc3)nc2-c2ccc(F)cc2)CCN1c1ncccn1` (stereo not shown) [Example 7.03.118.], the EC50 is reported as 211 nM. `CC1CN(c2ncccn2)CCN1C(=O)Cn1nc(-c2ccc(F)cc2)nc1-c1ccc(F)cc1` (stereo not shown) [Example 7.03.119.] was tested, and the EC50 was 329 nM. `Cc1nc2c(s1)CC(C)N(C(=O)Cn1nc(-c3ccc(F)cc3)nc1-c1ccc(F)cc1)CC2` (stereo not shown) [Example 7.03.121.] was tested, and the EC50 was 259 nM. With `Cc1nc2c(o1)CCN(C(=O)Cn1nc(-c3ccc(F)cc3)nc1-c1ccc(F)cc1)CC2` [Example 7.03.122.] the EC50 was 57 nM. In the case of `Cc1nc2c(o1)CN(C(=O)Cn1nc(-c3ccc(F)c(C)c3)nc1-c1ccccc1)C2` [Example 7.03.123], the EC50 is reported as 31 nM. In the case of `Cc1nc2c(o1)CN(C(=O)Cn1nc(-c3ccc(F)cc3)nc1-c1ccc(F)cc1)C2` [Example 7.03.124], the EC50 is reported as 61 nM. For `CCCCCc1nc(-c2ccc(F)c(C)c2)nn1CC(=O)N1Cc2nc(C)oc2C1` [Example 7.03.125], the EC50 was 152 nM. `CCc1nc(-c2ccc(OC(F)F)cc2)nn1CC(=O)N1CCc2nc(C)sc2CC1` [Example 7.03.126] was tested, and the EC50 was 201 nM. For `Cc1nc2c(s1)CCN(C(=O)Cn1nc(-c3ccc(OC(F)F)cc3)nc1-c1ccccc1)CC2` [Example 7.03.127], the EC50 was 40 nM. For `Cc1nc2c(s1)CN(C(=O)Cn1nc(-c3ccc(OC(F)F)cc3)nc1-c1ccccc1)C2` [Example 7.03.128], the EC50 was 85 nM. Work on `Cc1nc2c(o1)CN(C(=O)Cn1nc(-c3ccc(OC(F)F)cc3)nc1-c1ccccc1)C2` [Example 7.03.129] yielded an EC50 of 27 nM. For `CCCc1nc(-c2ccc(OC(F)F)cc2)nn1CC(=O)N1CCN(c2noc(C)n2)CC1` [Example 7.03.130], the EC50 was 481 nM. `CCCc1nc(-c2ccc(OC(F)F)cc2)nn1CC(=O)N1CCc2nc(C)sc2CC1` [Example 7.03.131] gave an EC50 of 316 nM. `COc1ccc(-c2nc(-c3ccccc3)n(CC(=O)N3Cc4nc(C)oc4C3)n2)cc1` [Example 7.03.132] showed an EC50 of 95 nM. Work on `COc1ccc(-c2nc(-c3ccc(OC)cc3)n(CC(=O)N3Cc4nc(C)oc4C3)n2)cc1` [Example 7.03.133] yielded an EC50 of 104 nM. Molecule `Cc1nnc(N2CCN(C(=O)Cn3nc(-c4ccc(OC(F)F)cc4)nc3-c3ccccc3)CC2)o1` [Example 7.03.134] has an EC50 of 129 nM. `Cc1nc(N2CCN(C(=O)Cn3nc(-c4ccc(OC(F)F)cc4)nc3-c3ccccc3)CC2)no1` [Example 7.03.135] showed an EC50 of 19 nM. `O=C(Cn1nc(-c2ccc(F)cc2)nc1-c1ccc(F)cc1)N1CCN(c2nccc3sccc23)CC1` [Example 07.03.136.] gave an EC50 of 498 nM. `O=C(Cn1nc(-c2ccc(F)cc2)nc1-c1ccc(F)cc1)N1CCN(c2nccc3occc23)CC1` [Example 07.03.137.] gave an EC50 of 339 nM. `O=C(Cn1nc(-c2ccc(F)cc2)nc1-c1ccc(F)cc1)N1CCc2nc(N3CCCC3)sc2CC1` [Example 7.04.01., 2-[3,5-bis-(4-Fluoro-phenyl)-(1,2,4)triazol-1-yl)-1-(2-pyrrolidin-1-yl-4,5,7,8-tetrahydro-thiazolo[4,5-d]azepin-6-yl)-ethanone] gave an EC50 of 678 nM. Work on `CNc1nc2c(s1)CCN(C(=O)Cn1nc(-c3ccc(F)cc3)nc1-c1ccc(F)cc1)CC2` [Example 7.04.02.] yielded an EC50 of 132 nM. Molecule `CN(C)c1nc2c(s1)CCN(C(=O)Cn1nc(-c3ccc(F)cc3)nc1-c1ccc(F)cc1)CC2` [Example 7.04.03.] has an EC50 of 346 nM. With `O=C(Cn1nc(-c2ccc(F)cc2)nc1-c1ccc(F)cc1)N1CCc2nc(N3CCCCC3)sc2CC1` [Example 7.04.04.] the EC50 was 561 nM. `O=C(Cn1nc(-c2ccc(F)cc2)nc1-c1ccc(F)cc1)N1CCc2nc(N3CCOCC3)sc2CC1` [Example 7.04.05.] showed an EC50 of 1660 nM.
